These results are taken from PubChem BioAssay (NCI).

Among the test systems are LXFL 529 NSCLC; DMS 114 small cell lung; XF 498 CNS; SNB-78 CNS; HOP-18 NSCLC; SN12K1 renal; P388 leukemia; P388/ADR leukemia; RXF-631 renal.
Test in all cases: NCI tumour cell line growth inhibition, 48 h

Where “and” joins values, the source holds several entries; their conditions need not be identical. Equal entries are not always repeated.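 These data come from cells grown in 96-well plates and exposed to compound for 48 hours at five concentrations. At the GI50, growth is halved. TGI: total growth inhibition.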

For the molecule `CC(=O)OC1CC2C(C)(C)OC(=O)CC(OC(C)=O)[C@]2(C)C2CCC3(C)C(=CCC3[C@H]3COC(=O)C3)[C@]12C` (stereo not given in full), the TGI with LXFL 529 NSCLC, with DMS 114 small cell lung, in the test with XF 498 CNS and in the test on SNB-78 CNS was above 100 µM in each case.

Take `O=C(CSc1nnc(Cc2ccccc2)o1)Nc1ccc([N+](=O)[O-])cc1`: the TGI with LXFL 529 NSCLC is above 100 µM; in the test with DMS 114 small cell lung it was 72.2 µM; with SNB-78 CNS, above 100 µM.

Regarding `O=C(NC(Cc1ccc(I)cc1)C(=O)O)c1ccc(Br)cc1` (stereo not given), the TGI in the test on DMS 114 small cell lung, in the test with XF 498 CNS, with HOP-18 NSCLC, in the test on SN12K1 renal, in the test on P388 leukemia and with SNB-78 CNS was above 100 µM in each case. The same molecule gave a TGI with P388/ADR leukemia above 31.6 µM.

Consider `O=C1OC2(OC2c2ccccc2)c2ccccc21` (stereo not given), for which the TGI in the test on LXFL 529 NSCLC is above 100 µM; in the test on DMS 114 small cell lung, 11 µM; with XF 498 CNS it was above 100 µM.

Turning to `CCCCCCCCCCCCCCCCCC(=O)O[C@H](COC(=O)CCCCCCCCCCC)COC(=O)CCCCCCCCCCCCCCC`, the TGI in the test with LXFL 529 NSCLC, in the test on DMS 114 small cell lung, with HOP-18 NSCLC and in the test on RXF-631 renal was above 100 µM throughout.

`Cc1[nH]c(=O)[nH]c(=O)c1/C=C/C(=O)O`: the TGI with DMS 114 small cell lung, with XF 498 CNS, with HOP-18 NSCLC, with SN12K1 renal, in the test on P388 leukemia and with SNB-78 CNS was above 1000 µM each time. The molecule also registered a TGI with P388/ADR leukemia above 1000 µM. The GI50 in the test on P388 leukemia was above 1000 µM.

As for `CCCC(C)NC1=C(NC(C)=O)C(=O)c2ccccc2C1=O` (stereo not given), the TGI with LXFL 529 NSCLC, in the test on XF 498 CNS and in the test on SNB-78 CNS was above 100 µM throughout.

On to `O=C(Cc1ccccc1)NN1C(=O)C(Cl)C1c1ccc(O)cc1` (stereo not given), for which the TGI with DMS 114 small cell lung and with HOP-18 NSCLC was above 100 µM throughout.

As to `COc1cc(CNc2ccc(SC)cc2)cc(OC)c1OC`, the TGI with LXFL 529 NSCLC was above 100 µM; in the test with DMS 114 small cell lung, 20.9 µM and 8.02 µM; with XF 498 CNS, 91.2 µM and 40 µM; with HOP-18 NSCLC, above 100 µM; in the test with SNB-78 CNS, above 100 µM. The GI50 in the test with XF 498 CNS was 23.4 µM and 11.1 µM.

On to `COc1cc(Nc2c3ccccc3nc3ccccc23)ccc1NS(C)(=O)=O`, for which the results for the TGI in the test on LXFL 529 NSCLC, in the test on HOP-18 NSCLC and in the test on SNB-78 CNS were 35 µM, 26.3 µM and 47.1 µM, respectively.

Take `O=C1c2ccccc2CCCCCCCCCCC12OCCCO2`: the TGI in the test on LXFL 529 NSCLC was above 100 µM; with DMS 114 small cell lung it was 37.5 µM; with HOP-18 NSCLC it was above 100 µM; in the test with SNB-78 CNS, above 100 µM.

For the molecule `Nc1ccc2[nH]c3c(-c4ccccc4)nccc3c2c1`, the TGI in the test with DMS 114 small cell lung was above 100 µM; in the test on XF 498 CNS it was above 100 µM; with HOP-18 NSCLC, above 100 µM; with SN12K1 renal, above 100 µM; with P388 leukemia it was 46.5 µM; in the test with SNB-78 CNS, above 100 µM. In the test on P388/ADR leukemia, this molecule displayed a TGI above 100 µM.

`O=C1c2ccccc2C(=O)N1Cc1ccccc1-c1c2nc(c(-c3ccccc3CN3C(=O)c4ccccc4C3=O)c3ccc([nH]3)c(-c3ccccc3CN3C(=O)c4ccccc4C3=O)c3nc(c(-c4ccccc4CN4C(=O)c5ccccc5C4=O)c4ccc1[nH]4)C=C3)C=C2`: the TGI in the test on LXFL 529 NSCLC, in the test with DMS 114 small cell lung, in the test on HOP-18 NSCLC and in the test with SNB-78 CNS was above 100 µM in each case.

Take `COc1ccc(O)cc1`: the TGI with LXFL 529 NSCLC, with DMS 114 small cell lung, in the test with XF 498 CNS and in the test on SNB-78 CNS was above 100 µM each time.

For `NC1=NS(=O)(=O)Nc2nc(-c3ccc([N+](=O)[O-])cc3)[nH]c21`, the TGI in the test with LXFL 529 NSCLC, in the test with DMS 114 small cell lung and in the test on HOP-18 NSCLC was above 100 µM in each case.
